Source: patent US4146719A, “Piperazinyl derivatives of quinoline carboxylic acids” (priority 1977, dated 1979)
Values after ≈ are worked out from the molar mass of the structure shown. Read-outs that look alike come from different tables or passages of the source.

Legend:
[1] = test system: Pseudomonas aeruginosa V-1; test: Antibacterial activity in vitro, M.I.C., agar dilution streak method; assay type: cell-based; conditions: Gram -; for MIC: Pseudomonas aeruginosa, V1, read-out: M.I.C.
[2] = test system: Bacillus subtilis PCI 219; test: as above; assay type: cell-based; conditions: Gram +; for MIC: Bacillus subtilis, PCI219, read-out: M.I.C.
[3] = test system: Staphylococcus aureus 209P; test: as above; assay type: cell-based; conditions: Gram +; for MIC: Staphylococcus aureus, 209P, read-out: M.I.C.
[4] = test system: E. coli ATCC 10536; test: as above; assay type: cell-based, Escherichia coli; conditions: for MIC: Escherichia coli, ATCC10536
[5] = test system: Ps. aeruginosa IID 1210; test: as above; assay type: cell-based, Pseudomonas aeruginosa; conditions: Gram -; for MIC: Pseudomonas aeruginosa, IID1210, read-out: M.I.C.
[6] = test system: Pr. vulgaris XK Denken; test: as above; assay type: cell-based, Proteus vulgaris; conditions: Gram -; for MIC: Proteus vulgaris, read-out: M.I.C.
[7] = test system: Proteus vulgaris IFO 3167; test: as above; assay type: cell-based; conditions: Gram -; for MIC: Proteus vulgaris, IFO3167, read-out: M.I.C.
[8] = test system: Streptococcus pyogenes IID 692; test: as above; assay type: cell-based; conditions: Gram +; for MIC: Streptococcus pyogenes, IID692, read-out: M.I.C.
[9] = test system: My. smegmatis IFO 3083; test: as above; assay type: cell-based; conditions: Gram +; for MIC: Mycolicibacterium smegmatis, IFO3083, read-out: M.I.C.
[10] = test system: Corynebacterium pyogenes IID 548; test: as above; assay type: cell-based; conditions: Gram +; for MIC: Corynebacterium pyogenes, IID548
[11] = test system: Klebsiella pneumoniae IFO 3512; test: as above; assay type: cell-based; conditions: for MIC: Klebsiella pneumoniae, IFO3512
[12] = test system: Mycobacterium phlei IFO 3142; test: as above; assay type: cell-based; conditions: Gram +; for MIC: Mycolicibacterium phlei, IFO3142, read-out: M.I.C.
[13] = test system: Shigella sonnei IID 969; test: as above; assay type: cell-based; conditions: Gram -; for MIC: Shigella sonnei, IID969
[14] = test system: Str. pyogenes S-8; test: as above; assay type: cell-based, Streptococcus pyogenes; conditions: Gram +; for MIC: Streptococcus pyogenes, S8, read-out: M.I.C.
[15] = test system: Sta. aureus ATCC 14775; test: as above; assay type: cell-based, Staphylococcus aureus; conditions: Gram +; for MIC: Staphylococcus aureus, ATCC14775, read-out: M.I.C.
[16] = test system: Str. faecalis IID 682; test: as above; assay type: cell-based; conditions: Gram +
[17] = test system: Salmonella enteritidis IID 604; test: as above; assay type: cell-based; conditions: Gram -; for MIC: Salmonella enterica, read-out: M.I.C.
[18] = test system: Ps. aeruginosa IID 1130; test: as above; assay type: cell-based, Pseudomonas aeruginosa; conditions: Gram -; for MIC: Pseudomonas aeruginosa, IID1130, read-out: M.I.C.
[19] = test system: Ps. aeruginosa IFO 12689; test: as above; assay type: cell-based, Pseudomonas aeruginosa; conditions: Gram -; for MIC: Pseudomonas aeruginosa, IFO12689, read-out: M.I.C.
[20] = test system: Diplococcus pneumoniae IID 552; test: as above; assay type: cell-based; conditions: Gram +; for MIC: Streptococcus pneumoniae, IID552, read-out: M.I.C.
[21] = test system: Haemophilus influenzae IID 986; test: as above; assay type: cell-based; conditions: Gram -; for MIC: Haemophilus influenzae, IID986, read-out: M.I.C.
[22] = test system: Neisseria perflava IID 856; test: as above; assay type: cell-based; conditions: for MIC: Neisseria perflava, IID856
[23] = test system: Pseudomonas aeruginosa IID 1210; test: Preventive effect against systemic infection with Pseudomonas aeruginosa in mice; assay type: in vivo, Pseudomonas aeruginosa; mice (ddY, male); conditions: Pseudomonas aeruginosa, challenge 3.5 × 10^4 cells/mouse; for ED50: twice (immediately and 6 hours after inoculation), read-out: ED50 (95% confidence limit); for ED90: twice, read-out: ED90
Method: Systemic infection was produced by inoculating male mice (strain: ddY, 6 weeks old, body weight: 28-33g) in intraperitoneally with Pseudomonas aeruginosa IID 1210 suspended in 0.5 ml of Brain heart infusion broth (Eiken) containing 5% mucin. […] Each of these test materials was administered to the mice twice, immediately after and then 6 hours after the inoculation, and the therapeutic effect of each compounds was judged from the survival rate.
(1) Miller L. C. and M. L. Tainter: Estimation of the ED50 and its error by means of logarithmic-probit graph paper Proc. Soc. Exp. Biol. Med. 57 261-264 (1944)
(2) Litchfield J. T. and F. Wilcoxon: A simplified method of evaluating dose - effect J. Pharmacol. 92 99-113 (1948)

[24] = test system: Escherichia coli NIHJ; test: Antibacterial activity in vitro, M.I.C., agar dilution streak method; assay type: cell-based; conditions: for MIC: Escherichia coli
[25] = test system: Escherichia coli NIHJ JC-2; test: Preventive effect against ascending kidney infection in mice with Escherichia coli; assay type: in vivo, Escherichia coli; mice (ddY, female); conditions: Escherichia coli, NIHJJC2, 48 h, oral, 3 hours after inoculation, challenge 3.2 × 10^7 cells/mouse
Method: Ascending kidney infection was induced in female mice (strain: ddY, 6 weeks old, body weight: 22-26g), by instilling Escherlichia coli NIHJ JC-2 suspended in 0.04 ml of Tryptosoya broth (Nissan) into the urinary tract of mice anesthetized with sodium pentobarbital and by holding for 6 hours the mice in plastic tubes (diameter 25 mm) and clamping the outlet of urinary tract.
Each of these test material was orally administered 3 hours after inoculation. Mice were sacrificed 48 hours after inoculation. Kidneys were removed aseptically and bisected, and the two halves were pressed and streaked on agar plate containing Desoxycholate medium (Nissan). The therapeutic effect of each compound was evaluated from the absence of growth on the agar surface after 20 hours of incubation at 37° C.

[26] = test system: gram-positive and gram-negative bacteria including Pseudomonas aeruginosa; test: Antibacterial spectrum in vitro (summary in words); assay type: cell-based
[27] = test system: Escherichia coli NIHJ JC-2; test: Influence of rat bile on antibacterial activity; assay type: cell-based; conditions: bile of rats
Method: Nutrient agar was heated and melted. […] The diameter of the inhibition zone was measured.

[28] = test system: Escherichia coli; test: Concentration ratio in serum to M.I.C. after oral administration of 50 mg/kg in rats; assay type: in vivo, Escherichia coli; rats; conditions: rat, in vivo, po, 50 mg/kg
[29] = Biliary excretion in rats after a single oral administration of 50 mg/kg; conditions: rat, in vivo, po, 50 mg/kg

Compound: CC1(C)S[C@@H]2[C@H](NC(=O)C(C(=O)O)c3ccccc3)C(=O)N2[C@H]1C(=O)O (some centres unmarked) [Carbenicillin]
- MIC [1]: 12.5 µg/mL (≈ 33 µM)
- MIC [2]: 0.39 µg/mL (≈ 1.03 µM)
- MIC [3]: 0.39 µg/mL (≈ 1.03 µM)
- MIC [4]: 1.56 µg/mL (≈ 4.12 µM)
- MIC [5]: 100 µg/mL (≈ 264 µM)
- MIC [6]: 0.39 µg/mL (≈ 1.03 µM)
- MIC [7]: 6.25 µg/mL (≈ 16.5 µM)
- MIC [8]: 0.1 µg/mL (≈ 0.264 µM)
- MIC [9]: 6.25 µg/mL (≈ 16.5 µM)
- MIC [10]: 0.2 µg/mL
- MIC ([11]; Gram -, read-out: M.I.C.): > 200 µg/mL
- MIC [12]: > 200 µg/mL
- MIC [13]: 1.56 µg/mL (≈ 4.12 µM)
- MIC [14]: 0.1 µg/mL (≈ 0.264 µM)
- MIC [15]: 6.25 µg/mL (≈ 16.5 µM)
- MIC ([16]; Enterococcus faecalis, IID682): 100 µg/mL
- MIC [17]: 12.5 µg/mL (≈ 33 µM)
- MIC [18]: 200 µg/mL (≈ 529 µM)
- MIC [19]: 100 µg/mL (≈ 264 µM)
- MIC [20]: 0.39 µg/mL (≈ 1.03 µM)
- MIC [21]: 0.39 µg/mL (≈ 1.03 µM)
- MIC [22]: 1.56 µg/mL (≈ 4.12 µM)
- ED50 ([23]; IID1210, sc, subcutaneous): 800 mg/kg
- ED90 ([23]; IID1210, subcutaneous): 1430 mg/kg
- MIC [24]: 1.56 µg/mL (≈ 4.12 µM)

Compound: Gentamicin
- M.I.C. [1]: 0.78 µg/mL
- M.I.C. [2]: 0.10 µg/mL
- M.I.C. [3]: 0.10 µg/mL
- M.I.C. ([4]; Gram -): 0.39 µg/mL
- M.I.C. [5]: 12.5 µg/mL
- M.I.C. [6]: 0.10 µg/mL
- M.I.C. [7]: 0.20 µg/mL
- M.I.C. [8]: 6.25 µg/mL
- M.I.C. [9]: 0.20 µg/mL
- M.I.C. [10]: 0.78 µg/mL
- M.I.C. ([11]; Gram -): 0.20 µg/mL
- M.I.C. [12]: 6.25 µg/mL
- M.I.C. [13]: 0.78 µg/mL
- M.I.C. [14]: 6.25 µg/mL
- M.I.C. [15]: 0.10 µg/mL
- M.I.C. [16]: 50 µg/mL
- M.I.C. [17]: 1.56 µg/mL
- M.I.C. [18]: 3.13 µg/mL
- M.I.C. [19]: 12.5 µg/mL
- M.I.C. [20]: 12.5 µg/mL
- M.I.C. [21]: 1.56 µg/mL
- M.I.C. ([22]; Gram -): 0.78 µg/mL
- M.I.C. ([24]; Gram -): 0.39 µg/mL

Compound: CCn1cc(C(=O)O)c(=O)c2cnc(N3CCNCC3)nc21 [Pipemidic acid]
- MIC [1]: 12.5 µg/mL (≈ 41.2 µM)
- MIC [2]: 6.25 µg/mL (≈ 20.6 µM)
- MIC [3]: 25 µg/mL (≈ 82.4 µM)
- MIC [4]: 1.56 µg/mL (≈ 5.14 µM)
- MIC [5]: 50 µg/mL (≈ 165 µM)
- MIC [6]: 6.25 µg/mL (≈ 20.6 µM)
- MIC [7]: 3.13 µg/mL (≈ 10.3 µM)
- MIC [8]: > 100 µg/mL
- MIC [9]: 50 µg/mL (≈ 165 µM)
- ED50 ([25]; read-out: ED50 (95% confidence limit)): 74 mg/kg
- ED90 ([25]; read-out: ED90): 235 mg/kg
- MIC [10]: 100 µg/mL
- MIC [11]: 1.56 µg/mL (≈ 5.14 µM)
- antibacterial activity (in words) [26]: inactive on many strains of gram-positive bacteria and many Pseudomonas aeruginosa strains
- MIC [12]: 12.5 µg/mL (≈ 41.2 µM)
- MIC [13]: 1.56 µg/mL (≈ 5.14 µM)
- antibacterial activity in presence of bile (in words) [27]: not influenced by bile of rats
- MIC [14]: > 100 µg/mL
- MIC [15]: 100 µg/mL (≈ 330 µM)
- MIC [17]: 12.5 µg/mL (≈ 41.2 µM)
- MIC [18]: 25 µg/mL (≈ 82.4 µM)
- MIC [19]: 25 µg/mL (≈ 82.4 µM)
- MIC [20]: > 100 µg/mL
- MIC [21]: 3.13 µg/mL (≈ 10.3 µM)
- serum concentration / M.I.C. ratio (in words) [28]: smaller than that of the compound (II)
- time for which serum levels were maintained [28]: ≤ 2 h
- concentration at 3 h [29]: 27400 ± 2600 ng/mL
- concentration at 6 h [29]: 22600 ± 1700 ng/mL
- concentration at 24 h [29]: 10200 ± 1200 ng/mL
- concentration at 27 h [29]: < 2000 ng/mL
- dose excreted at 3 h [29]: 0.6 ± 0.07%
- dose excreted at 6 h [29]: 1.01 ± 0.1%
- dose excreted at 24 h [29]: 1.97 ± 0.09%
- dose excreted at 27 h [29]: 1.97 ± 0.09%
- MIC [22]: 1.56 µg/mL (≈ 5.14 µM)
- ED50 ([23]; IID1210, oral): 400 mg/kg
- ED90 ([23]; IID1210, oral): 1120 mg/kg
- MIC [24]: 1.56 µg/mL (≈ 5.14 µM)
